Literature values, collected in patent publication EP2156182B1, “DETECTION OF AN ANALYTE IN A SAMPLE OF HEMOLYZED WHOLE BLOOD” (Roche Diagnostics GmbH, priority 2007, dated 2008).

Columns and labels:
[1] = therapeutic range, whole blood drug monitoring
[2] = relative to cyclosporin

CO[C@H]1C[C@@H]2CC[C@@H](C)[C@@](O)(O2)C(=O)C(=O)N2CCCC[C@H]2C(=O)O[C@H]([C@H](C)C[C@@H]2CC[C@@H](O)[C@H](OC)C2)CC(=O)[C@H](C)/C=C(\C)[C@@H](O)[C@@H](OC)C(=O)[C@H](C)C[C@H](C)/C=C/C=C/C=C/1C [sirolimus]
therapeutic trough concentration [1]: 5 to 15 µg/L

C=CC[C@@H]1/C=C(\C)C[C@H](C)C[C@H](OC)[C@H]2O[C@@](O)(C(=O)C(=O)N3CCCC[C@H]3C(=O)O[C@H](/C(C)=C/[C@@H]3CC[C@@H](O)[C@H](OC)C3)[C@H](C)[C@@H](O)CC1=O)[C@H](C)C[C@@H]2OC [Tacrolimus, tacrolimus]
times more potent than cyclosporin in vitro [2]: up to 100 times | therapeutic trough concentration [1]: 5 to 20 µg/L
